According to patent US7262336B2 (priority 2000, dated 2007):

Legend:
Format in all cases: in vivo, rat
[1] = test system: Gαq mutant transgenic rats; test: DOI induced headshakes and lethality in Gq transgenic rats; details: for number of headshakes: 0.1 mg/kg
Description: (§1) In general, 10 male and 10 female heterozygotes of each line were compared with a similar number of wild-type littermate controls. Testing began at 7-8 weeks of age. Subjects were individually housed in hanging metal mesh cages with ad libitum access to food and water under a 12 h light/dark cycle. For Lines 76, 67, and 11 the subjects were maintained on powdered rodent chow for the duration of the study. Subjects from Lines 58 and 75 were adapted to powdered chow for the feeding studies and then maintained on that chow for the remainder of the study. Subjects were evaluated in a series of tests outlined below over a period of approximately 12 weeks.
Wild type and transgenic rats were injected ip with either vehicle or DOI (0.001, 0.01, 0.1, 1.0 mg/kg) and were then housed singly in clear Plexiglas chambers (10″×18″×8″) for observational studies. A trained observer counted the number of headshakes for each rat during 2 observation periods (0-30 min; 45-75 min).
Assessing the effect of the RGS insensitive Gαq mutant transgene on receptors coupled via Gαq to the IP3 pathway in transgenic rats was an interest. 5-HT2A agonists produce large increases in headshakes in rats via this pathway. DOI (−1[2,5-dimethoxy-4-iodophenyl]-2-aminopropane) is a 5-HT2A receptor agonist, which increases headshakes in rats, and it has been used to investigate this pathway (Wettstein et al., 1999). DOI administration was used herein to determine if 5-HT2A agonist activity was modified in transgenic rats; results are shown in FIG. 27.

[2] = test system: normal Sprague-Dawley rats; test: DOI lethality in normal rats (separate experiments); details: doses as high as 30 mg/kg
Description: Higher doses of DOI (3-10 mg/kg) were required to produce similar effects in line 11 (data not shown).

[3] = test system: Gαq mutant transgenic rats; test: Stimulant-induced locomotor activity (d-amphetamine, phencyclidine) in Gq transgenic rats
Description: as §1
To complement the observations of motor activity obtained using the open field test, heterozygotes and wildtype littermate controls were evaluated for spontaneous locomotor activity using an automated data collection system and a more extended test period. Data in this test was collected in multiple time bins over the test period allowing for some assessment of both the exploratory activity level in a novel environment as well as the rate of habituation to that environment. Having habituated the subjects, a stimulant was administered to determine the responsiveness of these subjects to the stimulant using locomotor activity as a measure. In this study we used an indirect-acting dopamine agonist, d-amphetamine, and a NMDA excitatory amino acid antagonist, phencyclidine, to induce locomotion. The ability of d-amphetamine to increase motor activity is dependent on dopaminergic neurotransmission in the striatum, in particular the nucleus accumbens, but can be influenced by other neurotransmitters. The ability of phencyclidine to induce locomotor activity is dependent on changes in both dopamine and glutatmate neurotransmission (Adams and Moghaddam, J. Neurosci. 1998, 18:5545-54). The differences in locomotor activity observed under spontaneous and stimulant-induced conditions in heterozygotes vs. wildtype littermate controls are summarized in FIGS. 15 and 16.
Subjects were placed in activity monitors (Model RXYZCM16, Omnitech, Columbus, Ohio) equipped with infrared beams to detect movements on both the horizontal (16×16 in field) and vertical axes. The testing room was equipped with white noise. Following a 60 min habituation period during which activity was monitored for differences in spontaneous locomotor activity, each subject was treated with a dose of 1 mg/kg d-amphetamine ip and returned to the activity monitor. Activity induced by d-amphetamine was monitored for 2 h. On a separate occasion, these same subjects were placed in the activity monitors and allowed to habituate for 60 min. Following this re-habituation, each subject was treated with 10 mg/kg phencyclidine ip and monitored for activity for an additional 4 h. The doses of d-amphetamine and phencyclidine were selected based on other studies as doses that induce a hyperactive state in normal rats (see Adams and Moghaddam, supra; Krebs-Thomson et al., Fur. J. Pharmacol. 1998, 343:135-43). Data were analyzed using LSD following a 2-way ANOVA (transgene×time) with one repeated measure (time). Outcomes were determined significant at p<0.05.

[4] = test system: Gαq mutant transgenic rats; test: Pilocarpine-induced cholinergic signs and convulsions in Gq transgenic rats
Description: Muscarinic cholinergic agonists produce a series of cholinergic signs (chromodacryrhea, salivation, diarrhea, hypoactivity, tremors, foaming, convulsions and death) at high doses via a Gαq modulated pathway. Studies were conducted with the muscarinic agonist pilocarpine to determine if muscarinic agonist activity was modified in the transgenic rats (FIG. 28). Studies were conducted with the muscarinic agonist pilocarpine to determine if muscarinic agonist activity was modified by acute lithium (FIG. 29 or chronic lithium (FIG. 30). Both acute and chronic lithium potentiated the cholinergic signs produced by pilocarpine.

[5] = test system: Gαq mutant transgenic rats; test: Food intake after RO 60-0175 in Gq transgenic rats vs wild-type littermates
Description: as §1
Wild-type and transgenic rats were maintained on powdered chow in their home cages. Rats were fasted for 24 h prior to evaluation of food intake. Food intake was measured at 2, 4, and 24 h timepoints following ip injection of vehicle, 1, or 1.7 mg/kg RO 60-0175. Experimental sessions were generally conducted on Tues and Fri with 24 h fasts initiating on Mon and Thurs. […] 5-HT2C agonists decrease food intake via a Gαq modulated pathway. Studies using the selective 5-HT2C agonist RO 60-0175 were conducted to determine if 5-HT2C agonist activity was modified in transgenic rats.
To account for the baseline differences in food intake between wild-type and transgenic rats, the effects of RO 60-0175 were calculated as a percentage of the vehicle food intake. The effects of 1.7 mg/kg RO 60-0175 were greater in both males and females for transgenic heterozygotes for lines 75 and 67 (FIG. 7). The effects of 1.0 mg/kg RO 60-0175 were greater in males of line 67 as well (data not shown). […] There was no change in the effects of RO 60-0175 in rats from lines 58, 76, or 11.

COc1cc(CC(C)N)c(OC)cc1I (stereo not shown) [DOI, −1[2,5-dimethoxy-4-iodophenyl]-2-aminopropane]
number of headshakes ([1]; line 67 male transgenic heterozygote rats): trend toward increased headshakes
number of headshakes ([1]; line 75 male transgenic heterozygote rats): increased
lethality ([1]; 1 mg/kg, transgenic rats from lines 58, 75, 67 and 76): found dead within 24 hours
5-HT2A Agonist (DOI) Induction of Head Shakes ([1]; Gαq mutant Transgenics, cell wraps: 4 of 5 lines ↓ headshakes): 4 of 5 lines ↓
5-HT2A Agonist (DOI) Flattened Body Posture, Convulsions, Death ([1]; Gαq mutant Transgenics, cell wraps: FBP, conv and death at 1.0 mg/kg, higher doses required for line 11): 4 of 5 lines show FBP,
doses required to produce similar effects (lethality) ([1]; transgenic line 11): 3 to 10 mg/kg
lethality [2]: did not result in lethality

c1ccc(C2(N3CCCCC3)CCCCC2)cc1 [PCP, phencyclidine]
locomotor activity induced by phencyclidine, heterozygotes vs wildtype ([3]; 10 mg/kg ip, Line 58 males, delayed in the onset): increase in locomotor activity
phencyclidine locomotor activity, heterozygotes vs wildtype ([3]; 10 mg/kg ip, Line 67 males): reduced
locomotor activity induced by phencyclidine, heterozygotes vs wildtype ([3]; 10 mg/kg ip, Line 76 females, Line 11 males and females, to a lesser degree Line 67 females): delayed hyperactivity
phencyclidine-induced activity, heterozygotes vs wildtype ([3]; 10 mg/kg ip, Line 76 male (p=0.07)): slight trend toward a similar reduction
Noncompetitive NMDA antagonist (PCP) Locomotor Activity ([3]; Gαq mutant Transgenics, cell wraps: 4 of 5 lines ↑ hyperactivity (delayed)): 4 of 5 lines ↑

CC[C@@H]1C(=O)OC[C@@H]1Cc1cncn1C [Pilocarpine, pilocarpine]
Muscarinic Agonist (Pilocarpine) Convulsions, Death ([4]; Gαq mutant Transgenics, cell wraps: 3 of 3 lines tested conv and death (10–30 mg/kg)): 3 of 3 lines tested conv
Muscarinic Agonist (Pilocarpine) Induction of cholinergic signs ([4]; Gαq mutant Transgenics, cell wraps: 3 of 3 lines tested ↑ cholinergic signs): 3 of 3 lines tested ↑
sensitivity of the transgenic rats to the muscarinic agonist ([4]; transgenic rats): increased sensitivity

C[C@H](N)Cn1ccc2cc(F)c(Cl)cc21 [RO 60-0175]
effect on food intake as percentage of vehicle food intake, transgenic vs wild-type ([5]; 1.0 mg/kg ip, line 75 females): greater in wildtype than in transgenic rats
effect on food intake as percentage of vehicle food intake, transgenic heterozygotes vs wild-type ([5]; 1.0 mg/kg ip, males of line 67): greater
effect on food intake as percentage of vehicle food intake, transgenic heterozygotes vs wild-type ([5]; 1.7 mg/kg ip, males and females, lines 75 and 67): greater
5-HT2C Agonist (RO60-0175) Inhibition of Food Intake ([5]; Gαq mutant Transgenics, cell wraps: 2 of 5 lines ↑sensitivity to RO 60-0175): 2 of 5 lines
change in effect on food intake, transgenic vs wild-type ([5]; lines 58, 76, or 11): no change

C[C@H](N)Cc1ccccc1 [d-amph, d-amphetamine]
amphetamine-induced locomotor activity, heterozygotes vs wildtype ([3]; 1 mg/kg ip, males of Lines 58, 75, 67, 11 and females of Line 67, 76, 11, but not males of Line 76): reduced amphetamine-induced locomotor activity
Indirect DA agonist (d-amph) Locomotor Activity ([3]; Gαq mutant Transgenics, cell wraps: All lines ↓ hyperactivity): All lines ↓
